# From patent publication US20090270431A1, “Cyclopentenol Nucleoside Compounds Intermediates for their Synthesis and Methods of Treating Viral Infections” (THE UNIVERSITY OF GEORGIA RESEARCH FOUNDATION, priority 2005, published 2009)
# Entries after “also recorded” stand apart in the source; their conditions may differ. Counter-ions that a name gives are not always drawn. Like-named read-outs stand apart in the source and are kept apart here.
# How the values were obtained:
# [1] = cytotoxicity in the HCV RNA replicon assay; conditions: for Cytotoxicity (% cell control): primary, single-dilution test
# [2] = tested on: HCV RNA replicon; assay: HCV RNA replicon assay; format: cell-based, hepatitis C virus (HCV); conditions: for Activity (% inhibition virus control) / outcome of primary test: primary, single-dilution test; for EC50: Hepatitis C virus
# Protocol: A number of […] 7-deazaneplanocin compounds were tested in vitro to determine activity against hepatitis C virus (HCV).
# [3] = tested on: SARS virus; format: cell-based; conditions: against SARS virus
# [4] = tested on: HBV strain WT; assay: HBV DR Assay, strain WT; format: cell-based
# [5] = tested on: Hepatitis B Virus; assay: in vitro anti-HBV activity, RI (intracellular HBV DNA replication intermediates); format: cell-based
# Protocol: (§1) In the first biological experiment, a number of 7-deazaneplanocin compounds were tested in vitro to determine activity against hepatitis B virus (HBV).
# [6] = tested on: Hepatitis B Virus; assay: in vitro anti-HBV activity, VIR (extracellular virion HBV DNA); format: cell-based
# Protocol: as §1
# [7] = toxicity (CC50) in the anti-HBV test; format: cell-based
# [8] = stability of the isolated compound on standing; format: physicochemical; conditions: room temperature, over several days
# [9] = tested on: VZV; assay: CPE assay, VZV in HFF cells; format: cell-based, varicella zoster virus; conditions: Human alphaherpesvirus 3
# [10] = tested on: Measles; assay: antiviral assay, Measles in CV-1; format: cell-based; conditions: Measles morbillivirus
# [11] = tested on: HSV-2; assay: CPE assay, HSV-2 in HFF cells; format: cell-based, herpes simplex virus type 2; conditions: Human alphaherpesvirus 2
# [12] = tested on: Flu A (H3N2); assay: microbe, parasite or virus in culture; format: cell-based
# [13] = tested on: Adeno; assay: antiviral assay, Adeno in A-549; format: cell-based; conditions: unidentified adenovirus, A549, Adeno
# [14] = tested on: RSV A; assay: antiviral assay, RSV A in MA-104; format: cell-based; conditions: human respiratory syncytial virus, MA104, RSV A
# [15] = tested on: SARS; assay: organism not typed; format: cell-based; conditions: Vero 76
# [16] = tested on: Flu A (H1N1); assay: microbe, parasite or virus in culture; format: cell-based; conditions: Influenza A virus, H1N1, MDCK
# [17] = tested on: Flu A; assay: organism not typed; format: cell-based
# [18] = tested on: Cowpox; assay: microbe, parasite or virus in culture; format: cell-based, cowpox virus
# [19] = tested on: Vaccinia; assay: microbe, parasite or virus in culture; format: cell-based, vaccinia virus
# [20] = tested on: Flu A (H5N1); assay: microbe, parasite or virus in culture; format: cell-based
# [21] = tested on: PIV; assay: antiviral assay, PIV in MA-104; format: cell-based, parainfluenza virus
# [22] = tested on: HCMV; assay: CPE assay, HCMV in HFF cells; format: cell-based, human cytomegalovirus; conditions: Human betaherpesvirus 5
# [23] = tested on: Rhinovirus; assay: antiviral assay, Rhinovirus in HeLa Ohio-1; format: cell-based; conditions: Enterovirus, HeLa Ohio1, RV, HO-1
# [24] = tested on: HSV-1; assay: CPE assay, HSV-1 in HFF cells; format: cell-based, herpes simplex virus type 1; conditions: Human alphaherpesvirus 1
# [25] = tested on: Yellow Fever; assay: organism not typed; format: cell-based; conditions: Vero
# [26] = tested on: cowpox virus; format: cell-based; conditions: against cowpox virus
# [27] = tested on: vacinnia virus; format: cell-based; conditions: against vacinnia virus
# [28] = tested on: vacinnia, cowpox and SARS viruses; format: cell-based
# [29] = tested on: HFF cells
# [30] = Hepatitis B virus, VIR: extracellular virion HBV DNA
# [31] = HT20, HT @ 20 μM, read-out: EC50
# [32] = VIR: extracellular virion HBV DNA
compound,measurement,setting,value
Nc1ncnc2c1c([N+](=O)[O-])cn2[C@@H]1C=C(CO)C(O)C1O (stereo partly shown),Cytotoxicity (% cell control),[1],101.5%
same,Activity (% inhibition virus control),[2],31.5%
"1-(4,5-Dihydroxy-3-hydroxymethyl-cyclopenten-2-enyl)-1H-[1,2,4]triazole-3-carboxylic acid amide [Compound 17a]",EC50,[3],21 µM
Nc1ccn([C@@H]2CS[C@H](CO)O2)c(=O)n1 [Compound 3TC],EC50,[4],0.2 µM
same,EC90,[4],0.6 µM
"C=Cc1cn([C@@H]2C=C(CO)[C@H](O)C2O)c2ncnc(N)c12 (stereo partly shown) [Compound 25, 7-Deaza-7-Vinyl-Substituted Neplanocin A]",melting point,,168 to 170 °C
same,EC50,[5]; Hepatitis B virus,10 µM
same,EC90,[5]; Hepatitis B virus,26 µM
same,EC50,[6]; [30],3.3 µM
same,EC90,[6]; [30],9.1 µM
same,CC50,[7],> 300 µM
7-Deaza-7-Amino-Neplanocin A [Compound 23],stability,[8],not stable; also recorded: slowly decomposed in room temperature
C=Cc1cn([C@@H]2C=C(CO)C(O)C2O)c2ncnc(N)c12 (stereo partly shown),Cytotoxicity (% cell control),[1],99.7%
same,Activity (% inhibition virus control),[2],49.2%
C#Cc1cn([C@@H]2C=C(CO)C(O)C2O)c2ncnc(N)c12 (stereo partly shown) [drawing 37],IC50,"[1]; HT20, HT @ 20 μM",> 20 µM
same,IC50,[1]; HT @ 100 μM,48.9 µM
same,Cytotoxicity (% cell control),[1],86.6%
same,EC50,[2]; [31],12.3 µM
same,EC50,"[2]; HT @ 100 μM, read-out: EC50",20.1 µM
same,Activity (% inhibition virus control),[2],73.3%
"C#Cc1cn([C@@H]2C=C(CO)C(O)C2O)c2ncnc(N)c12 (stereo partly shown) [Compound 27, 7-Deaza-7-Acetylene-Neplanocin A]",melting point,,126 to 128 °C
same,EC50,[5]; Hepatitis B virus,1.8 µM
same,EC90,[5]; Hepatitis B virus,7.9 µM
same,EC50,[6]; [30],0.315 µM
same,EC90,[6]; [30],1.6 µM
same,CC50,[7],> 300 µM
same,EC50,[4]; Hepatitis B virus,2.5 µM
same,EC90,[4]; Hepatitis B virus,8.7 µM
"Nc1ncnc2c1c(Cl)cn2[C@@H]1C=C(CO)[C@@H](O)[C@H]1O [Compound 11, 7-Deaza-7-Chloro Neplanocin A]",EC50,[6]; [32],> 10 µM
same,EC90,[6]; [32],> 10 µM
same,CC50,[7],> 300 µM
"Nc1ncnc2c1c([N+](=O)[O-])cn2[C@@H]1C=C(CO)[C@H](O)C1O (stereo partly shown) [Compound 22, 7—Deaza-7-Nitro-Neplanocin A]",melting point,,245 to 246 °C
same,EC50,[6]; [30],> 10 µM
same,EC90,[6]; [30],> 10 µM
same,CC50,[7],> 300 µM
"Nc1ncnc2c1c(I)cn2[C@@H]1C=C(CO)[C@@H](O)[C@H]1O [Compound 13, 7-Deaza-7-Iodo Neplanocin A]",EC50,[5],1.6 µM
same,EC90,[5],5.9 µM
same,EC50,[6]; [32],0.431 µM
same,EC90,[6]; [32],1.8 µM
same,CC50,[7],> 300 µM
Nc1ncnc2c1c(F)cn2[C@@H]1C=C(CO)C(O)C1O (stereo partly shown),Cytotoxicity (% cell control),[1],112.7%
same,Activity (% inhibition virus control),[2],9.5%
same,outcome of primary test,[2],"Inactive in primary, single-dilution test"
"Nc1ncnc2c1c(Br)cn2[C@@H]1C=C(CO)[C@@H](O)[C@H]1O [Compound 12, 7-Deaza-7-Bromo Neplanocin A]",EC50,[6]; [32],> 10 µM
same,EC90,[6]; [32],> 10 µM
same,CC50,[7],> 300 µM
Nc1ncnc2c1c(Br)cn2[C@@H]1C=C(CO)C(O)C1O (stereo partly shown),IC50,"[1]; HT20, HT @ 20 μM",> 20 µM
same,IC50,[1]; HT @ 100 μM,41.7 µM
same,Cytotoxicity (% cell control),[1],76.3%
same,EC50,[2]; [31],10.5 µM
same,EC50,"[2]; HT @ 100 μM, read-out: EC50",16.7 µM
same,Activity (% inhibition virus control),[2],80.9%
"Nc1nccc2c1ncn2[C@@H]1C=C(CO)[C@@H](O)[C@H]1O [Compound 3-DNPA, (−)-1-[(1R,4R,5S)-3-(Hydroxymethyl)-4,5-dihydroxy-2-cyclopenten-1-yl]-4-aminoimidazo[4,5-c]pyridine Hydrochloride]",EC50,[9],> 300 µM
same,EC50,[10]; NR,0.4 µM
same,EC50,[10]; Visual,0.9 µM
same,EC50,[11],43.5 µM
same,EC50,"[12]; Flu A (H3N2), Visual, MDCK",> 100 µM
same,EC50,"[12]; Influenza A virus, H3N2, MDCK",> 100 µM
same,EC50,[13]; NR,17 µM
same,EC50,[13]; Visual,24 µM
same,EC50,[14]; NR,4 µM
same,EC50,[14]; Visual,100 µM
same,EC50,"[15]; SARS, Visual",> 100 µM
same,EC50,[15],> 100 µM
same,EC50,[16]; NR,> 25 µM
same,EC50,[16]; Visual,> 100 µM
same,EC50,"[6]; Hepatitis B virus, HBV, VIR, Huh7 ET (Table 3)",0.59 µM
same,EC50,[17],> 100 µM
same,EC50,"[18]; Cowpox virus, HFF",182 µM
same,EC50,"[19]; Orthopoxvirus vaccinia, HFF",2.9 µM
same,EC50,"[20]; Flu A (H5N1), Visual, MDCK",> 100 µM
same,EC50,"[20]; Influenza A virus, H5N1, MDCK",> 100 µM
same,EC50,"[21]; MA104, NR",> 100 µM
same,EC50,[21]; Visual,> 100 µM
same,EC50,"[2]; Huh7 ET, HCV, HRR (HCV RNA replicon), Huh7 ET, read-out: EC50",1.44 µM
same,EC50,[22],0.36 µM
same,EC50,[23]; NR,4 µM
same,EC50,[23]; Visual,32 µM
same,EC50,[24],> 300 µM
same,EC50,[25],> 100 µM
same,EC50,"[25]; YF, Visual",> 100 µM
CC(C)(C)C(=O)OCOP(=O)(COCCn1cnc2c(N)ncnc21)OCOC(=O)C(C)(C)C [ADV],EC50,[4],1.3 µM
same,EC90,[4],6 µM
Nc1ncnc2c1c(F)cn2[C@@H]1C=C(CO)[C@@H](O)[C@H]1O [Compound 10],EC50,[6]; [32],> 10 µM
same,EC90,[6]; [32],> 10 µM
same,CC50,[7],> 300 µM
N#Cc1cn([C@@H]2C=C(CO)C(O)C2O)c2ncnc(N)c12 (stereo partly shown),Cytotoxicity (% cell control),[1],103.3%
same,Activity (% inhibition virus control),[2],0.5%
same,outcome of primary test,[2],"Inactive in primary, single-dilution test"
Nc1ncnc2c1c(Cl)cn2[C@@H]1C=C(CO)C(O)C1O (stereo partly shown),IC50,[1]; HT @ 100 μM,50.1 µM
same,Cytotoxicity (% cell control),[1],81.2%
same,EC50,[2]; HT @ 100 μM,14.7 µM
same,Activity (% inhibition virus control),[2],70.6%
"NC(=O)c1cn(C2C=C(CO)C(O)C2O)nn1 (stereo not shown) [Compound 17c, 1-(4,5-Dihydroxy-3-hydroxymethyl-cyclopenten-2-enyl)-1H-[1,2,3]triazole-4-carboxylic acid amide]",EC50,[26],39 µM
same,EC50,[27],0.4 µM
same,EC50,[3],47 µM
"N#Cc1cn([C@@H]2C=C(CO)[C@@H](O)[C@H]2O)c2ncnc(N)c12 [Compound 17, 7-Deaza-7-Cyano-Neplanocin A]",EC50,[6]; [32],> 10 µM
same,EC90,[6]; [32],> 10 µM
same,CC50,[7],> 300 µM
NC(=O)c1cn([C@@H]2C=C(CO)C(O)C2O)c2ncnc(N)c12 (stereo partly shown),IC50,[1]; HT not given,11.8 µM
same,Cytotoxicity (% cell control),[1],44.2%
same,EC50,"[2]; HT not given, read-out: EC50",1.85 µM
same,Activity (% inhibition virus control),[2],93.5%
Nc1ncnc2c1c(I)cn2[C@@H]1C=C(CO)C(O)C1O (stereo partly shown),IC50,[1]; HT @ 5 μM,> 5 µM
same,IC50,[1]; HT @ 100 μM,15 µM
same,Cytotoxicity (% cell control),[1],35.2%
same,EC50,"[2]; HT @ 5 μM, read-out: EC50",3.07 µM
same,EC50,"[2]; HT @ 100 μM, read-out: EC50",2.14 µM
same,Activity (% inhibition virus control),[2],89.7%
"NC(=O)c1cn(C2C=C(CO)C(O)C2O)cn1 (stereo not shown) [Compound 17b, 1-(4,5-Dihydroxy-3-hydroxymethyl-cyclopenten-2-enyl)-1H-imidazole-4-carboxylic acid amide]",antiviral activity,[28],did not show any significant antiviral activity
"Nc1ccn(C[C@@H](CO)OCP(=O)(O)O)c(=O)n1 [Cidofovir, reference compound]",EC50,"[18]; Cowpox virus, HFF",5 µM
same,EC50,"[19]; Orthopoxvirus vaccinia, HFF",4 µM
"NC(=O)c1cn([C@@H]2C=C(CO)[C@@H](O)[C@H]2O)c2ncnc(N)c12 [Compound 18, 7-Deaza-7-Amido-Neplanocin A]",EC50,[6]; [32],> 10 µM
same,EC90,[6]; [32],> 10 µM
same,CC50,[7],> 300 µM
Nc1ncnc2c1ccn2[C@@H]1C=C(CO)[C@@H](O)[C@H]1O [7-deaza neplanocin A],EC90,"[18]; Cowpox, HFF cells, CPE reduction assay",4.6 µM
same,EC50,"[18]; Cowpox, HFF cells, CPE reduction assay, read-out: EC50",1.2 µM
same,EC90,"[19]; Vaccinia, HFF cells, CPE reduction assay",21.5 µM
same,EC50,"[19]; Vaccinia, HFF cells, CPE reduction assay, read-out: EC50",3.4 µM
same,CC50,[29],> 300 µM
same,cytotoxicity (none up to),[29],> 300 µM
Nc1nc2c(ccn2[C@@H]2C=C(CO)C(O)C2O)c(=O)[nH]1 (stereo partly shown),Cytotoxicity (% cell control),[1],99.8%
same,Activity (% inhibition virus control),[2],10.1%
same,outcome of primary test,[2],"Inactive in primary, single-dilution test"
